Legend:
[1] = Forced degradation: stability of Compound I formulations in selected solvents and Carrier A (HPLC)
[2] = Water uptake of Compound I (Karl Fischer coulometric analysis); format: physicochemical
Description: For the purposes of establishing material handling practices, Compound I was evaluated for water uptake in various controlled conditions. Compound I was exposed to 25° C./60% relative humidity and 40° C./75% relative humidity for up to one day. Approximately 200 mg of Compound I was accurately weighed into separate glass vials and placed uncapped in stability chambers. At various time points, the vials were removed, stoppered and crimped, and the water content for Compound I powder was determined by standard Karl Fischer coulometric analysis.

[3] = tested on: Sprague Dawley rats; test: Single-dose maximum tolerated dose (MTD) study; format: in vivo, rat; conditions: 200 or 300 mg/kg, once, oral gavage
Description: (§1) A single-dose maximum tolerated dose (MTD) phase A study and a 7-day dose range-finding (DRF) phase B study were conducted in Sprague Dawley rats by MPI Research, Inc. (Mattawan, Mich.). A total of 62 males and 62 females rats were assigned to the study, which was performed in accordance with all current regulations. Animals were housed in standard conditions and had ad libitum access to food and water. Healthy animals of each sex were randomized into treatment groups using a standard, by weight, measured value randomization procedure. Compound I was administered by oral gavage, once at each dose level in Phase A (acute), or once daily for 7 consecutive days in Phase B. Oral gavage was chosen because the oral route is the intended route of administration in humans. Animals were observed twice daily for morbidity and mortality and were euthanatized for humane reasons where appropriate. An initial starting dose of 50 mg/kg was used for Phase A. Subsequent doses were increased or decreased based on the response to the preceding dose. […] The dose levels used in Phase B were based on the MTD identified in Phase A.
(§2) A single-dose maximum tolerated dose (MTD) study and a seven consecutive day dose-range finding study were carried out in Sprague Dawley by orally administering a formulation of Compound I in Carrier A. In the MTD phase, doses of 50, 100, 200 and 300 mg/kg were administered once to Sprague Dawley rats by oral gavage. The single-dose MTD of Compound I in rats was found at 100 mg/kg.

[4] = Single-dose maximum tolerated dose (MTD) study; format: in vivo, rat; conditions: both sexes, Sprague Dawley, rat, in vivo; rats, oral gavage, Compound I in Carrier A
Description: as §1, §2

[5] = EtOH, 25° C./60% RH, t = 2 week

## CC1=CC(=O)c2c(O)cccc2C1=O [Compound I, 5-hydroxy-2-methylnaphthalene-1,4-dione]
[1]; EA (poor chromatography), 25° C./60% RH, t = 1 week
  Solution Stability in Selected Solvents, Purity: 77.38 % Area
[1]; EA (poor chromatography), 25° C./60% RH, t = 2 week
  Solution Stability in Selected Solvents, Purity: 76.03 % Area
[1]; EA (poor chromatography), 40° C./75% RH, t = 1 week
  Solution Stability in Selected Solvents, Purity: 77.28 % Area
[1]; EA (poor chromatography), 40° C./75% RH, t = 2 week
  Solution Stability in Selected Solvents, Purity: 77.13 % Area
[1]; EtOH, 25° C./60% RH, t = 0
  Solution Stability in Selected Solvents, Purity: 99.37 % Area
[1]; EtOH, 25° C./60% RH, t = 1 week
  Solution Stability in Selected Solvents, Purity: 96.08 % Area
[1]; [5]
  Solution Stability in Selected Solvents, % Potency: 93.35%
  Solution Stability in Selected Solvents, Purity: 92.82 % Area
[1]; EtOH, 40° C./75% RH, t = 1 week
  Solution Stability in Selected Solvents, Purity: 91.99 % Area
[1]; EtOH, 40° C./75% RH, t = 2 week
  Solution Stability in Selected Solvents, Purity: 89.39 % Area
[1]; IPA, 25° C./60% RH, t = 0
  Solution Stability in Selected Solvents, Purity: 98.80 % Area
[1]; IPA, 25° C./60% RH, t = 1 week
  Solution Stability in Selected Solvents, Purity: 95.62 % Area
[1]; IPA, 25° C./60% RH, t = 2 week
  Solution Stability in Selected Solvents, Purity: 93.35 % Area
[1]; IPA, 40° C./75% RH, t = 1 week
  Solution Stability in Selected Solvents, Purity: 91.10 % Area
[1]; IPA, 40° C./75% RH, t = 2 week
  Solution Stability in Selected Solvents, Purity: 89.40 % Area
[1]; MeOH, 25° C./60% RH, t = 0
  Solution Stability in Selected Solvents, Purity: 99.32 % Area
[1]; MeOH, 25° C./60% RH, t = 1 week
  Solution Stability in Selected Solvents, Purity: 95.54 % Area
[1]; MeOH, 25° C./60% RH, t = 2 week
  Solution Stability in Selected Solvents, Purity: 88.79 % Area
[1]; MeOH, 40° C./75% RH, t = 1 week
  Solution Stability in Selected Solvents, Purity: 86.56 % Area
[1]; MeOH, 40° C./75% RH, t = 2 week
  Solution Stability in Selected Solvents, Purity: 83.85 % Area
[1]; PEG 300, 25° C./60% RH, t = 0
  Solution Stability in Selected Solvents, Purity: 98.52 % Area
[1]; PEG 300, 25° C./60% RH, t = 1 week
  Solution Stability in Selected Solvents, Purity: 88.59 % Area
[1]; PEG 300, 25° C./60% RH, t = 2 week
  Solution Stability in Selected Solvents, Purity: 80.73 % Area
[1]; PEG 300, 40° C./75% RH, t = 1 week
  Solution Stability in Selected Solvents, Purity: 65.16 % Area
[1]; PEG 300, 40° C./75% RH, t = 2 week
  Solution Stability in Selected Solvents, Purity: 49.31 % Area
[1]; PEG 400, 25° C./60% RH, t = 0
  Solution Stability in Selected Solvents, Purity: 98.33 % Area
[1]; PEG 400, 25° C./60% RH, t = 1 week
  Solution Stability in Selected Solvents, Purity: 88.42 % Area
[1]; PEG 400, 25° C./60% RH, t = 2 week
  Solution Stability in Selected Solvents, Purity: 81.00 % Area
[1]; PEG 400, 40° C./75% RH, t = 1 week
  Solution Stability in Selected Solvents, Purity: 70.08 % Area
[1]; PEG 400, 40° C./75% RH, t = 2 week
  Solution Stability in Selected Solvents, Purity: 49.07 % Area
[1]; PG, 25° C./60% RH, t = 0
  Solution Stability in Selected Solvents, Purity: 99.65 % Area
[1]; PG, 25° C./60% RH, t = 1 week
  Solution Stability in Selected Solvents, Purity: 99.14 % Area
[1]; PG, 25° C./60% RH, t = 2 week
  Solution Stability in Selected Solvents, Purity: 97.81 % Area
[1]; PG, 40° C./75% RH, t = 1 week
  Solution Stability in Selected Solvents, Purity: 97.49 % Area
[1]; PG, 40° C./75% RH, t = 2 week
  Solution Stability in Selected Solvents, Purity: 96.43 % Area
[1]; THF, 25° C./60% RH, t = 0
  Solution Stability in Selected Solvents, Purity: 96.45 % Area
[1]; THF, 25° C./60% RH, t = 1 week
  Solution Stability in Selected Solvents, Purity: 94.19 % Area
[1]; THF, 25° C./60% RH, t = 2 week
  Solution Stability in Selected Solvents, Purity: 91.24 % Area
[1]; THF, 40° C./75% RH, t = 1 week
  Solution Stability in Selected Solvents, Purity: 92.54 % Area
[1]; THF, 40° C./75% RH, t = 2 week
  Solution Stability in Selected Solvents, % Potency: 99.82%
  Solution Stability in Selected Solvents, Purity: 89.34 % Area
[1]; Tween-20 or Tween-80 surfactant formulations
  Compound I lost: ≥ 50%
[2]; 25° C./60% RH, 0 hours
  Water content: 0.023%
[2]; 25° C./60% RH, 5 hours
  Water content: 0.026%
[2]; 25° C./60% RH, 24 hours
  Water content: 0.029%
[2]; 25° C./60% and 40° C./75% relative humidity, up to one day
  Water content of Compound I powder (in words): anhydrous
[2]; 40° C./75% RH, 0 hours
  Water content: 0.023%
[2]; 40° C./75% RH, 5 hours
  Water content: 0.027%
[2]; 40° C./75% RH, 24 hours
  Water content: 0.031%
[2]; at up to 75% relative humidity
  Sensitivity to water uptake: not sensitive to water uptake
[3]
  Adverse clinical events: decreased activity, abnormal body carriage and piloerection
  Mortality after acute administration: unscheduled deaths in male rats on Days 1 and 2 but not in females
[4]
  MTD: 100 mg/kg

Reference: US20180221306A1, “PHARMACEUTICAL COMPOSITIONS OF 5-HYDROXY-2-METHYLNAPHTHALENE-1,4-DIONE” (PellFiCure Pharmaceuticals, Inc., priority 2016, published 2018)
